Test results published in patent US20150259403A1, “Methods and Pharmaceutical Compositions for Treatment of Gastrointestinal Stromal Tumors” (INSERM (INSTITUT NATIONAL DE LA SANTÉ ET DE LA RECHERCHE …, priority 2012, published 2015).
Entries after “also recorded” stand apart in the source; their conditions may differ.

System: RBPMS2 transcript level in GIST882 cells
Assay: RBPMS2 transcript level by quantitative RT-PCR in GIST882 cells after inhibitor treatment
Format: cell-based, human
Protocol: For quantitative RT-PCR analysis, gene expression levels were measured using the LightCycler technology (Roche Diagnostics). […] Each sample was assayed in three independent experiments in triplicate. Expression levels were determined with the LightCycler analysis software (version 3.5) relative to standard curves. Data were represented as the mean level of gene expression relative to the expression of the reference gene HPRT (Roche Diagnostic). For cell culture experiments, RNA isolation was done with the RNeasy Mini kit (Qiagen) and quantitative RT-PCR was performed using Power Sybergreen (Applied biosystems). Data were represented as the mean level of gene expression relative to the expression of the reference genes ABL, TTC1 and UBC for the comparison of RBPMS2 expression between different cell lines and GAPDH and ACTIN for GIST882 cells, which were treated with either Imatinib or U0126.
The human GIST cell line GIST882 was maintained in DMEM (GIBCO) supplemented with 10% Fetal Bovine Serum (FBS), 2% Penicilline-Streptomycin (Lonza) and incubated with 1 μM of Imatinib (inhibitor of KIT activity) (LC Laboratory) or 5 μM of U0126 (MEK inhibitor) (Sigma-Aldrich), as previously described (Gromova et al., 2011).

| Compound | RBPMS2 transcript (mRNA) level (5 μM U0126 vs DMSO control, 6, 24 and 48 h) | RBPMS2 transcript (mRNA) level (1 μM Imatinib vs DMSO control, 6, 24 and 48 h) |
| --- | --- | --- |
| N#CC(=C(/N)Sc1ccccc1N)/C(C#N)=C(\N)Sc1ccccc1N [U0126] | No significant changes; also recorded: not influenced | – |
| Cc1ccc(NC(=O)c2ccc(CN3CCN(C)CC3)cc2)cc1Nc1nccc(-c2cccnc2)n1 [Imatinib] | – | No significant changes; also recorded: not influenced |
